How the values were obtained:
[1] = molecular target: T1, HCV polymerase (NS5B) type 1a (Hepatitis C virus genotype 1a, UniProt P26664); test: Assay of enzyme (HCV polymerase) inhibitory activity, type 1a enzyme; format: biochemical, HCV type 1a (cloned from the blood of patients)
T1 construct: made in house; host or cells: Escherichia coli (by the 'similar method' of the 1b enzyme)
In short: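 NS5B Δ47 C-term His6 (type 1a, 1.5 μg/ml); substrate RNA 5 μg/ml; ATP/GTP/CTP 50 μM, UTP 2 μM + [5,6-3H]UTP; Tris pH 7.5, MgCl2 5 mM; 25° C, 60 min. TCA/pyrophosphate stop, GF/B filter, scintillation. IC50 vs no-compound control.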

[2] = molecular target: T2, HCV polymerase (NS5B) type 1b (Hepatitis C virus genotype 1b, UniProt P26663); test: Assay of enzyme (HCV polymerase) inhibitory activity, type 1b enzyme; format: biochemical, HCV BK strain (type 1b)
T2 construct: a region encoding NS5B (J Virol 1991 March, 65(3), 1105-13, 544 amino acids after deletion of 47 amino acids on the C-terminal); 6xHis (C); made in house; host or cells: Escherichia coli
In short: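 Rxn: NS5B 1b (BK, ΔC47, His6) 0.5 μg/ml; substrate RNA 5 μg/ml; ATP/GTP/CTP 50 μM, UTP 2 μM + [5,6-3H]UTP; 20 mM Tris pH 7.5, 5 mM MgCl2, 50 mM NaCl, 1 mM EDTA/DTT. 25 °C, 60 min. Stop with TCA/pyrophosphate, filter, scintillation count; IC50 vs. untreated.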

[3] = HCV polymerase inhibitory activity (IC50), 1a, type 1a enzyme 1.5 μg/ml, 25° C., 60 min
[4] = HCV polymerase inhibitory activity (IC50), 1b, type 1b enzyme 0.5 μg/ml, 25° C., 60 min
[5] = HCV polymerase inhibitory activity IC50, 1a, type 1a enzyme
[6] = HCV polymerase inhibitory activity IC50, 1b, type 1b enzyme

SMILES | IC50 [1, 3] | IC50 [2, 4] | IC50 [1, 5] | IC50 [2, 6]
Cc1nc(N2CCN(S(=O)(=O)c3ccc(C(F)(F)F)cc3)[C@@H](C(=O)NCc3ccc(N(C)C)cc3)C2)sc1C(=O)O [Example 343, 2-[(R)-3-(4-dimethylamino-benzylcarbamoyl)-4-(4-trifluoromethyl-benzenesulfonyl)-piperazin-1-yl]-4-methyl-thiazole-5-carboxylic acid] | < 100 nM | < 100 nM |  | 
CCCc1ccc(CNC(=O)[C@H]2CN(c3nc4cc(C(=O)O)ncc4s3)CCN2S(=O)(=O)c2ccc(OC(F)(F)F)cc2)cc1 [Example 1082, 2-[(R)-3-(4-propyl-benzylcarbamoyl)-4-(4-trifluoromethoxy-benzenesulfonyl)-piperazin-1-yl]-thiazolo[5,4-c]pyridine-6-carboxylic acid] |  |  | < 100 nM | < 100 nM
O=C(NCc1ccc(OC(F)(F)F)cc1)[C@H]1CN(c2nc3cn[nH]c(=O)c3s2)CCN1S(=O)(=O)c1ccc(F)cc1 [Example 864, (R)-1-(4-fluoro-benzenesulfonyl)-4-(7-oxo-6,7-dihydro-thiazolo[4,5-d]pyridazin-2-yl)-piperazine-2-carboxylic acid 4-trifluoromethoxy-benzylamide] |  |  | 100 to 1000 nM | < 100 nM
CCCc1ccc(S(=O)(=O)N2CCN(c3nc(C(=O)OCC)cs3)C[C@@H]2C(=O)NCc2ccc(C(C)C)cc2)cc1 [Example 296, 2-[(R)-3-(4-isopropyl-benzylcarbamoyl)-4-(4-propyl-benzenesulfonyl)-piperazin-1-yl]-thiazole-4-carboxylic acid ethyl ester] | < 100 nM | < 100 nM |  | 
CCc1ccc(CNC(=O)[C@H]2CN(C(C)=O)CCN2S(=O)(=O)c2ccc(C(C)C)cc2)cc1 [Example 232, (R)-4-acetyl-1-(4-isopropyl-benzenesulfonyl)-piperazine-2-carboxylic acid 4-ethyl-benzylamide] | 100 to 1000 nM | 100 to 1000 nM |  | 
Cc1nnn(CC(=O)N2CCN(S(=O)(=O)c3ccc(OC(F)(F)F)cc3)[C@@H](C(=O)NCc3ccc(C(F)(F)C(F)(F)F)cc3)C2)n1 [Example 551, (R)-4-[2-(5-methyl-tetrazol-2-yl)-acetyl]-1-(4-trifluoromethoxy-benzenesulfonyl)-piperazine-2-carboxylic acid 4-pentafluoroethyl-benzylamide] | 100 to 1000 nM | 100 to 1000 nM |  | 
COCC(C)(C)c1ccc(CNC(=O)[C@H]2CN(c3nc4cn[nH]c(=O)c4s3)CCN2S(=O)(=O)c2ccc(OC(F)(F)F)cc2)cc1 [Example 851, (R)-4-(7-oxo-6,7-dihydro-thiazolo[4,5-d]pyridazin-2-yl)-1-(4-trifluoromethoxy-benzenesulfonyl)-piperazine-2-carboxylic acid 4-(2-methoxy-1,1-dimethyl-ethyl)-benzylamide] |  |  | < 100 nM | < 100 nM
CCCc1ccc(S(=O)(=O)N2CCN(c3nc(COC)c(C(=O)O)s3)C[C@@H]2C(=O)NCc2ccc(C(C)C)cc2)cc1 [Example 394, 2-[(R)-3-(4-isopropyl-benzylcarbamoyl)-4-(4-propyl-benzenesulfonyl)-piperazin-1-yl]-4-methoxymethyl-thiazole-5-carboxylic acid] | < 100 nM | < 100 nM |  | 
O=C(NCc1ccc(OC(F)(F)F)cc1)[C@H]1CN(c2nc3nc(Cl)ncc3s2)CCN1S(=O)(=O)c1ccc(OC(F)(F)F)cc1 [Example 802, (R)-4-(5-chloro-thiazolo[4,5-d]pyrimidin-2-yl)-1-(4-trifluoromethoxy-benzenesulfonyl)-piperazine-2-carboxylic acid 4-trifluoromethoxy-benzylamide] |  |  | < 100 nM | < 100 nM
CCCc1ccc(CNC(=O)[C@H]2CN(C(=O)Cn3nnc(CC(=O)O)n3)CCN2S(=O)(=O)c2ccc(OC(F)(F)F)cc2)cc1 [Example 465, (2-{2-oxo-2-[(R)-3-(4-propyl-benzylcarbamoyl)-4-(4-trifluoromethoxy-benzenesulfonyl)-piperazin-1-yl]-ethyl}-2H-tetrazol-5-yl)-acetic acid] | < 100 nM | < 100 nM |  | 
CC(=O)N1CCN(S(=O)(=O)c2ccc(OC(F)(F)F)cc2)[C@@H](C(=O)NCc2ccc(Br)cc2)C1 [Example 655, (R)-4-acetyl-1-(4-trifluoromethoxy-benzenesulfonyl)-piperazine-2-carboxylic acid 4-bromo-benzylamide] | 100 to 1000 nM | 100 to 1000 nM |  | 
CC(=O)N1CCN(S(=O)(=O)c2ccc(OCC(=O)O)cc2)[C@@H](C(=O)NCc2ccc(C(C)C)cc2)C1 [Example 249, {4-[(R)-4-acetyl-2-(4-isopropyl-benzylcarbamoyl)-piperazine-1-sulfonyl]-phenoxy}-acetic acid] | > 1000 nM | > 1000 nM |  | 
CCCc1ccc(CNC(=O)[C@H]2CN(C(C)=O)CCN2S(=O)(=O)c2ccc(OC(F)(F)F)cc2)cc1 [Example 450, (R)-4-acetyl-1-(4-trifluoromethoxy-benzenesulfonyl)-piperazine-2-carboxylic acid 4-propyl-benzylamide] | < 100 nM | < 100 nM |  | 
Cc1nc(N2CCN(S(=O)(=O)c3ccc(OC(F)(F)F)cc3)[C@@H](C(=O)NCc3ccc(C(C)C)cc3)C2)sc1C(=O)NCC(=O)O [Example 360, ({2-[(R)-3-(4-isopropyl-benzylcarbamoyl)-4-(4-trifluoromethoxy-benzenesulfonyl)-piperazin-1-yl]-4-methyl-thiazole-5-carbonyl}-amino)-acetic acid] | < 100 nM | < 100 nM |  | 
CC(=O)N1CCN(S(=O)(=O)c2ccc(C(C)C)cc2)C(C(=O)NCc2cccc(C(F)(F)F)c2)C1 (stereo not shown) [Example 119, 4-acetyl-1-(4-isopropyl-benzenesulfonyl)-piperazine-2-carboxylic acid 3-trifluoromethyl-benzylamide] | > 1000 nM | > 1000 nM |  | 
CC(O)c1ncc2sc(N3CCN(S(=O)(=O)c4ccc(OC(F)(F)F)cc4)[C@@H](C(=O)NCc4ccc(OC(F)(F)F)cc4)C3)nc2n1 (stereo partly drawn) [Example 1060, (R)-4-[5-(1-hydroxy-ethyl)-thiazolo[4,5-d]pyrimidin-2-yl]-1-(4-trifluoromethoxy-benzenesulfonyl)-piperazine-2-carboxylic acid 4-trifluoromethoxy-benzylamide] |  |  | < 100 nM | < 100 nM
CC(C)c1ccc(CNC(=O)[C@H]2CN(C3CCNC3=O)CCN2S(=O)(=O)c2ccc(C(F)(F)F)cc2)cc1 (stereo partly drawn) [Example 345, (R)-4-(2-oxo-pyrrolidin-3-yl)-1-(4-trifluoromethyl-benzenesulfonyl)-piperazine-2-carboxylic acid 4-isopropyl-benzylamide] | > 1000 nM | 100 to 1000 nM |  | 
CCC(F)(F)c1ccc(CNC(=O)[C@H]2CN(C(=O)Cn3nnnc3N)CCN2S(=O)(=O)c2ccc(OC(F)(F)F)cc2)cc1 [Example 1097, (R)-4-[2-(5-amino-tetrazol-1-yl)-acetyl]-1-(4-trifluoromethoxy-benzenesulfonyl)-piperazine-2-carboxylic acid 4-(1,1-difluoro-propyl)-benzylamide] |  |  | 100 to 1000 nM | 100 to 1000 nM
COc1ncc2sc(N3CCN(S(=O)(=O)c4ccc(C(F)(F)F)cc4)[C@@H](C(=O)NCc4ccc(OC(F)(F)F)cc4)C3)nc2n1 [Example 905, (R)-4-(5-methoxy-thiazolo[4,5-d]pyrimidin-2-yl)-1-(4-trifluoromethyl-benzenesulfonyl)-piperazine-2-carboxylic acid 4-trifluoromethoxy-benzylamide] |  |  | < 100 nM | < 100 nM
CCC(F)(F)c1ccc(CNC(=O)[C@H]2CN(c3cnc4cncnc4n3)CCN2S(=O)(=O)c2ccc([N+](=O)[O-])cc2)cc1 [Example 698, (R)-1-(4-nitro-benzenesulfonyl)-4-pteridin-7-yl-piperazine-2-carboxylic acid 4-(1,1-difluoro-propyl)-benzylamide] |  |  | < 100 nM | < 100 nM
CCC(F)(F)c1ccc(CNC(=O)[C@H]2CN(c3nc4nc(C)nc(Cl)c4s3)CCN2S(=O)(=O)c2ccc(OC(F)(F)F)cc2)cc1 [Example 928, (R)-4-(7-chloro-5-methyl-thiazolo[4,5-d]pyrimidin-2-yl)-1-(4-trifluoromethoxy-benzenesulfonyl)-piperazine-2-carboxylic acid 4-(1,1-difluoro-propyl)-benzylamide] |  |  | < 100 nM | < 100 nM
CCC(F)(F)c1ccc(CNC(=O)[C@H]2CN(c3cnc4cccc(Cl)c4n3)CCN2S(=O)(=O)c2ccc(OC(F)(F)F)cc2)cc1 [Example 742, (R)-4-(8-chloro-quinoxalin-2-yl)-1-(4-trifluoromethoxy-benzenesulfonyl)-piperazine-2-carboxylic acid 4-(1,1-difluoro-propyl)-benzylamide] |  |  | 100 to 1000 nM | < 100 nM
CC(C)(C)c1ccc(CNC(=O)[C@H]2CN(C(=O)Cc3ccncc3)CCN2S(=O)(=O)c2ccc(OC(F)(F)F)cc2)cc1 [Example 500, (R)-4-(2-pyridin-4-yl-acetyl)-1-(4-trifluoromethoxy-benzenesulfonyl)-piperazine-2-carboxylic acid 4-tert-butyl-benzylamide] | < 100 nM | < 100 nM |  | 

— patent publication US8017612B2, “Piperazine compound and use thereof as a HCV polymerase inhibitor” (priority 2006, dated 2011)
